In patent US4650812A, “4-oxo-3,4-dihydro-2H-1-benzopyranyloxy alkanoic acid derivatives” (Hoffmann-La Roche Inc., priority 1985, dated 1987):
Like-named read-outs stand apart in the source and are kept apart here.

Legend:
[1] = system: SRS-A induced constriction of the guinea pig ileum; assay: Guinea Pig Ileum, In Vitro (SRS-A antagonism); format: cell-based; conditions: Cavia porcellus
Method: (a) Guinea Pig Ileum, In Vitro:
The guinea pig ileum biassay system has been described by Orange Austen, Adv. Immunol. 10: 105-144 (1969). A 1.5 cm segment is removed from animals weighing 300-400 g and suspended in an organ bath containing 10 ml of Tyrodes solution with 10^-6 M atropine sulfate and 10^-6 M pyrilamine maleate. The bath is maintained at 37° C. and aerated with a mixture of 95% oxygen and 5% carbon dioxide. The SRS-A utilized in this screen is obtained by challenging chopped lung fragments from actively sensitized guinea pigs with egg albumin, in vitro. A dose-response curve to SRS-A challenge is established for the ileum. The dose of SRS-A which given 50% of the maximal contraction (EC50) is then used for subsequent challenge. The drug concentration which inhibits, by 50%, the SRS-A induced constriction of the guinea pig ileum is determined.

leukotriene E4 = assay: Guinea Pig Bronchoconstriction, In Vivo (Aerosol) (SRS-A antagonism); set-up: species or system guinea pig (Hartley strain); conditions: leukotriene E4 i.v. challenge; for In vivo-aerosol IC50: 5 min exposure, % (w/v) conc.
Method: (b) Guinea Pig Bronchoconstriction, In Vivo (Aerosol):
Male guinea pigs (Hartley strain) weighing 300 to 500 g are anesthetized with urethane (2 g/kg) intraperitoneally and a polyetylene cannula is inserted into the jugular vein for drug administration. Tracheal pressure is recorded from a cannula inserted in the trachea and connected to a Statham pressure transducer. After surgical preparation of the animals, a period of time is allowed from pulmonary functions to stabilize. The test compound is administered according to the following protocol. Propanolol (0.1 mg/kg) is administered intravenously while the animals breathed spontaneously. Five minutes thereafter, the animals are exposed for a five minute period to a 1% (w/v) aerosol solution of test compound (adjusted to an alkaline pH where necessary for drug solubilization) or to distilled water of the appropriate pH (for control purposes). A Monaghan (Model 750) ultrasonic nebulizer is used to administer all test compounds by inhalation. The nebulizer ultrasonic frequency is adjusted to produce particles in the 1-8μ diameter range (average 3μ). Aqueous solutions are prepared freshly and introduced into the chamber of the nebulizeer. The output of the nebulizer is made available to the animal by directing a bias flow of aerosol through a Y tube connected to the tracheal cannula. At the end of the exposure period, the animals are paralyzed with succinylcholine (1.2 mg/kg, i.v.) and mechanically respirated (Harvard rodent respirator) at 40 breaths/minute and 2.5 cc tidal volume. […]
The change (cm H2 O) between pre and peak ventilatory pressure readings averaged for three control animals and five drug treated animals. The percent inhibition is calculated from the following formula: [formula] When various drug concentrations are tested, the percent inhibition at each concentration is plotted as log concentration (abscissa) versus percent inhibition (ordinate) and the IC50 is determined from linear regression analysis.

LTD4 = assay: Oral Testing of Leukotriene Antagonists (guinea pig, SRS-A antagonism); format: in vivo, guinea pig (Hartley strain, Charles River); conditions: 10 mg/kg P.O., two hours prior to challenge with leukotriene
Method: (c) Oral Testing of Leukotriene Antagonists
Male guinea pigs (Hartley strain, Charles River) weighing 400 to 600 g were anesthetized with urethane (2 g/kg) intraperitoneally and a polyethylene cannula was inserted into the jugular vein for intravenous drug administration. Tracheal pressure (cm water) was recorded from a Statham pressure transducer. After surgical preparation of the animals, a period of time was allowed for spontaneous breathing to stabilize. […] Two minutes later, spontaneous breathing was arrested with succinylcholine chloride (1.2 mg/kg, i.v.) and the animals ventilated with a Harvard (Model #680) small animal respirator set at 40 breaths per minute and 4.0 cc stroke volume. The animals were challenged with a maximum constrictory dose of either leukotriene C4 or leukotriene D4 or leukotriene E4 ([…], i.v.) at 5 minutes. Control vehicle or test drug (adjusted to an alkaline pH where necessary for drug solubilization) was administered (10 mg/kg, p.o) two hours prior to challenge with leukotriene. In order to determine the ID50 for a test drug, the dose is varied from 10 mg/kg, p.o. to 100, 50, 30, 20, 5, 3 and 1 mg/kg. p.o.
In order to determine oral duration of action, the time between exposure to test drug and challenge with leukotriene is varied.
In test procedure (c), the compounds listed in Table III were tested by this oral procedure, and the results obtained are also set out in Table III.

[2] = SRS-A challenge at EC50, Table I, read-out: In vitro G.P. ileum IC50

SMILES	IC50 [1, 2] [nM]	further results
CCCc1c(OCC(O)Cc2ccc3c(=O)cc(C(=O)O)oc3c2CCC)ccc(C(C)=O)c1O (centres unmarked) [7-[3-(4-acetyl-3-hydroxy-2-propylphenoxy)-2-hydroxypropyl]-4-oxo-8-propyl-4H-1-benzopyran-2-carboxylic acid, reference compound]	–	IC50 ([1]; SRS-A challenge at EC50, read-out: IC50 of the standard SRS-A antagonist): 35 nM
CCCc1c(OCCCCC2CC(=O)c3ccc(OCC(=O)O)c(CCC)c3O2)ccc(C(C)=O)c1O (racemic) [rac.-[[2-[4-(4-acetyl-3-hydroxy-2-propylphenoxy)butyl]-3,4-dihydro-4-oxo-8-propyl-2H-1-benzopyran-7-yl]oxy]acetic acid]	500	In vivo-aerosol % inhib. at (% conc.) (leukotriene E4; at 0.1 % conc.): 34.1 ± 8%
CCCc1c(OCCCCCCC2(C)CC(=O)c3ccc(OCC(=O)O)c(CCC)c3O2)ccc(C(C)=O)c1O (racemic) [rac.-[[2-[6-(4-acetyl-3-hydroxy-2-propylphenoxy)hexyl]-3,4-dihydro-2-methyl-4-oxo-8-propyl-2H-1-benzopyran-7-yl]oxy]acetic acid]	500	In vivo-aerosol IC50 (leukotriene E4): 0.26%
CCCc1c(OCCCCC2(C)CC(=O)c3ccc(OCCCC(=O)O)c(CCC)c3O2)ccc(C(C)=O)c1O (racemic) [rac.-4-[[2-[4-(4-acetyl-3-hydroxy-2-propylphenoxy)butyl]-3,4-dihydro-2-methyl-4-oxo-8-propyl-2H-1-benzopyran-7-yl]oxy]butanoic acid]	1000	–
CCCc1c(OCCCCC2(C)CC(=O)c3ccc(OCC(=O)OC)cc3O2)ccc(C(C)=O)c1O (racemic) [rac.-[[2-[4-(4-acetyl-3-hydroxy-2-propylphenoxy)butyl]-3,4-dihydro-2-methyl-4-oxo-2H-1-benzopyran-7-yl]oxy]acetic acid methyl ester]	–	% Inhib. of LTD4 (LTD4): 47 ± 5%
CCCc1c(OCCCCC2(C)CC(=O)c3ccc(OCC(=O)O)c(CCC)c3O2)ccc(C(C)=O)c1O (racemic) [rac.-[2-[4-(4-acetyl-3-hydroxy-2-propylphenoxy)butyl]-3,4-dihydro-2-methyl-4-oxo-8-propyl-2H-1-benzopyran-7-yl]oxy]acetic acid]	2000	–
CCCc1c(OCCCCCCC2CC(=O)c3ccc(OCC(=O)O)c(CCC)c3O2)ccc(C(C)=O)c1O (racemic) [rac.-[[2-[6-(4-acetyl-3-hydroxy-2-propylphenoxy)hexyl]-3,4-dihydro-4-oxo-8-propyl-2H-1-benzopyran-7-yl]oxy]acetic acid]	300	In vivo-aerosol IC50 (leukotriene E4): 0.32%
CCCc1c(OCCCCC2(C)CC(=O)c3ccc(OCC(=O)O)cc3O2)ccc(C(C)=O)c1O (racemic) [rac.-[[2-[4-(4-acetyl-3-hydroxy-2-propylphenoxy)butyl]-3,4-dihydro-2-methyl-4-oxo-2H-1-benzopyran-7-yl]oxy]acetic acid]	5000	–
CCCc1c(OCCCCC2(C)CC(=O)c3ccc(OCC(=O)OC)c(CCC)c3O2)ccc(C(C)=O)c1O (racemic) [rac.-[[2-[4-(4-acetyl-3-hydroxy-2-propylphenoxy)butyl]-3,4-dihydro-2-methyl-4-oxo-8-propyl-2H-1-benzopyran-7-yl]oxy]acetic acid methyl ester]	–	% Inhib. of LTD4 (LTD4): 25 ± 12%
CCCc1c(OCCCCC2(C)CC(=O)c3ccc(OCCCC(=O)OCC)c(CCC)c3O2)ccc(C(C)=O)c1O (racemic) [rac.-4-[2-[4-(4-acetyl-3-hydroxy-2-propylphenoxy)butyl]-3,4-dihydro-2-methyl-4-oxo-8-propyl-2H-1-benzopyran-7-yl]oxy]butanoic acid ethyl ester]	–	% Inhib. of LTD4 (LTD4): 38 ± 7%
CCCc1c(OCCCCC2(C)CC(=O)c3ccc(OCCCC(=O)O)cc3O2)ccc(C(C)=O)c1O (racemic) [rac.-4-[[2-[4-(4-acetyl-3-hydroxy-2-propylphenoxy)butyl]-3,4-dihydro-2-methyl-4-oxo-2H-1-benzopyran-7-yl]oxy]butanoic acid]	3000	–
